Assay results published in US20210213010A1, “TLR7/8 AGONISTS AND LIPOSOME COMPOSITIONS” (Torque Therapeutics, Inc., priority 2018, published 2021).
“Also recorded” adds a separate entry of the source.

Legend:
whole human blood [1] = experiment: IL-6 cytokine expression in stimulated whole human blood (ELISA); type: cell-based
Experimental: (§1) This example describes the general procedure used to assess the level of cytokine IL-6 and IL-12p40 expressions upon stimuli of whole human blood with small molecules or small molecules in liposomal formulations F1 and F2. 10 mM DMSO solutions of the small molecules were diluted in RPMI media (RPMI-1640, Sigma Aldrich) with 1% penicillin/streptomycin (p/s). […], of each dilution was transferred to Nunc™ 96-Well Polystyrene Conical Bottom MicroWell™ Plates in duplicates. Blood was drawn from two human donors, diluted in RPMI with 1% p/s and added to each well to reach final concentrations of 10 μM, 1 μM, and 0.1 μM of the small molecules. The plates were incubated at 37° C. in a cell incubator for 24h. The plates were then spun down in a plate centrifuge with 3200 revolutions per minute (rpm) for 10 min before 50 uL of the supernatant was transferred to new 96-well plates. The supernatant samples were subsequently stored at −80° C. until the day of cytokine measurements.
(§2) The level of cytokine expression was measured using either an IL-6 ELISA Kit (RnDSystems, cat #DY206) for IL-6, or an IL-12p40 ELISA Kit (RnDSystems, cat #DY1240) according to the manufacturer's protocols. This general procedure was used to generate the examples 24-33.

whole human blood [2] = experiment: IL-12p40 cytokine expression in stimulated whole human blood (ELISA); type: cell-based
Experimental: as §1, §2

[3] = Cryo-TEM of remote loaded liposomes (intraliposomal precipitation); type: physicochemical
Experimental: CryoTEM samples of 3 μL of liposome solution was placed on a lacy carbon 300 mesh copper TEM grid, blotted and plunge frozen in liquid ethane using a FEI Vitrobot Mark IV. Samples were imaged using a FEI Tecnai G2 20 TWIN transmission electron microscope operated at 200 keV in low dose mode with a FEI High-Sensitive (HS) 4 k×4 k Eagle camera.

[4] = Remote loading efficiency of small molecules into liposomes (PD-10 size exclusion, HPLC); type: physicochemical
Experimental: A solution of the small molecule (modified TLR agonist) was lyophilized in a vial equipped with a magnetic stir bar over night to form a fluffy white powder. This powder was added either formulation F1 or F2 to the wanted drug/lipid ratio. The resulting mixture was stirred at 55° C. or 41° C. for formulation F1 and F2 respectively for 3h, then allowed to cool to rt before the solutions were refrigerated and stored at 4° C.
Remote loading efficiency was determined at 1 h and 3 h by taking out 100 μL of the mixture and applying this and 900 μL buffer (25 mM HEPES, 10 vol % sucrose buffer, pH 7.4) to a PD-10 column size exclusion column. Following, 10×1 mL fractions were collected, and the small molecule compound concentrations in the loading mixture and in the liposome containing fractions were determined on analytical HPLC. Loading efficiency was calculated as percentage of molecules found in liposome containing fractions out of the applied amount. The general procedure for the small molecule remote loading is visualized in FIG. 3. The general concept of remote loading imidazoquinolines in liposomes that are dialyzed against HEPES is visualized in FIG. 4.

[5] = free small molecule, 10, 1, 0.1 μM, 24 h, two donors

- Remote loading efficiency 1 h (%) ([4]; formulation F1, HEPES, drug/lipid ratio 0.06, 1 h): 87%
- Remote loading efficiency 3 h (%) ([4]; formulation F1, HEPES, drug/lipid ratio 0.06, 3 h): 98%
- Remote loading efficiency 1 h (%) ([4]; formulation F1, HEPES, drug/lipid ratio 0.10, 1 h): 93%
- Remote loading efficiency 3 h (%) ([4]; formulation F1, HEPES, drug/lipid ratio 0.10, 3 h): 95%
- Remote loading efficiency 1 h (%) ([4]; formulation F1, HEPES, drug/lipid ratio 0.25, 1 h): 90%
- Remote loading efficiency 3 h (%) ([4]; formulation F1, HEPES, drug/lipid ratio 0.25, 3 h): 98%
- Remote loading efficiency 1 h (%) ([4]; formulation F1, HEPES, drug/lipid ratio 0.50, 1 h): 77%
- Remote loading efficiency 3 h (%) ([4]; formulation F1, HEPES, drug/lipid ratio 0.50, 3 h): 70%
- Remote loading efficiency 1 h (%) ([4]; formulation F1, TAPS pH 8.5, drug/lipid ratio 0.06, 1 h): 80%
- Remote loading efficiency 3 h (%) ([4]; formulation F1, TAPS pH 8.5, drug/lipid ratio 0.06, 3 h): 77%
- Remote loading efficiency 1 h (%) ([4]; formulation F2, HEPES, drug/lipid ratio 0.06, 1 h): 81%
- Remote loading efficiency 3 h (%) ([4]; formulation F2, HEPES, drug/lipid ratio 0.06, 3 h): 81%
- Remote loading efficiency 1 h (%) ([4]; formulation F2, HEPES, drug/lipid ratio 0.10, 1 h): 82%
- Remote loading efficiency 3 h (%) ([4]; formulation F2, HEPES, drug/lipid ratio 0.10, 3 h): 88%
- Remote loading efficiency 1 h (%) ([4]; formulation F2, HEPES, drug/lipid ratio 0.25, 1 h): 90%
- Remote loading efficiency 3 h (%) ([4]; formulation F2, HEPES, drug/lipid ratio 0.25, 3 h): 94%
- Remote loading efficiency 1 h (%) ([4]; formulation F2, HEPES, drug/lipid ratio 0.50, 1 h): 73%
- Remote loading efficiency 3 h (%) ([4]; formulation F2, HEPES, drug/lipid ratio 0.50, 3 h): 57%
- Remote loading efficiency 1 h (%) ([4]; formulation F2, TAPS pH 8.5, drug/lipid ratio 0.06, 1 h): 80%
- Remote loading efficiency 3 h (%) ([4]; formulation F2, TAPS pH 8.5, drug/lipid ratio 0.06, 3 h): 70%
SMILES: CCOCc1nc2c(N)nc3ccccc3c2n1CCN [MK079-D, 1-(2-aminoethyl)-2-(ethoxymethyl)-1H-imidazo[4,5-c]quinolin-4-amine]
- Expression of IL-6 upon stimulation of whole human blood (whole human blood [1]; [5]): expression of IL-6 at 10 μM in both donors
- Expression of IL-6 upon stimulation of whole human blood (whole human blood [1]; remote loaded in formulation F1, HEPES, drug/lipid ratio 0.06): an expression of IL-6 at 10 μM
- Expression of IL-6 upon stimulation of whole human blood (whole human blood [1]; remote loaded in formulation F1, TAPS, drug/lipid ratio 0.06): no expression of IL-6 at 10 μM
- Expression of IL-6 upon stimulation of whole human blood (whole human blood [1]; remote loaded in formulation F2, HEPES, drug/lipid ratio 0.06): able to induce expression of IL-6
- Expression of IL-6 upon stimulation of whole human blood (whole human blood [1]; remote loaded in formulation F2, TAPS, drug/lipid ratio 0.06): resulted in an expression of IL-6
- Expression of IL-12p40 upon stimulation of whole human blood (whole human blood [2]; [5]): expression of IL-12p40 at 10 μM in both donors
- Expression of IL-12p40 upon stimulation of whole human blood (whole human blood [2]; remote loaded in formulation F1, HEPES or TAPS, drug/lipid ratio 0.06): did not lead to any expression of IL-12p40
- Expression of IL-12p40 upon stimulation of whole human blood (whole human blood [2]; remote loaded in formulation F2, HEPES or TAPS, drug/lipid ratio 0.06): Induction of IL-12p40 expression was observed; also recorded: larger expression of IL-12p40 when dialyzed against HEPES compared to TAPS
- Precipitation in liposomes (Cryo-TEM) ([3]; formulation F1, HEPES, drug/lipid ratio 0.25): precipitation of the small molecule inside the aqueous core of the liposomes
- Precipitation in liposomes (Cryo-TEM) ([3]; formulation F1, HEPES, drug/lipid ratio 0.50): precipitation of the small molecule in the aqueous core of the liposomes
- Precipitation in liposomes (Cryo-TEM) ([3]; formulation F2, drug/lipid ratio 0.25): precipitation of the small molecule in the aqueous core of the liposomes
- Precipitation in liposomes (Cryo-TEM) ([3]; formulation F2, drug/lipid ratio 0.50): precipitation of the small molecule in the aqueous core of the liposomes
